The values below are quoted from earlier work in patent US8431806B2, “Liposomal formulations of anthracycline agents and cytidine analogs” (Celator Pharmaceuticals, Inc., priority 2004, dated 2013).

Each structure is given as a SMILES string.

For the data set the following is noted: in vivo.

For the compound `COc1cccc2c1C(=O)c1c(O)c3c(c(O)c1C2=O)C[C@@](O)(C(C)=O)C[C@@H]3O[C@H]1C[C@H](N)[C@H](O)[C@H](C)O1` [Daunorubicin], the half-life for elimination was 19 h. Also, the oral absorption result (po) is “low”.
